Test results: publication PMC4263960 (Pediatric blood & cancer, 2013)

How the values were obtained:
[1] = tested on: MLL-7 tertiary infant precursor B-ALL xenograft; assay: PPTP in vivo xenograft testing, MLL-7; parameters: species or system mice
[2] = tested on: Rh36 EMB rhabdomyosarcoma xenograft; assay: PPTP in vivo xenograft testing, Rh36; parameters: species or system mice
BT-29 rhabdoid xenograft = assay: PPTP in vivo xenograft testing, BT-29; parameters: species or system mice
[3] = Tolerability in xenograft-bearing mice; format: in vivo
[4] = Eribulin pharmacokinetics in SCID mice
[5] = tested on: NB-1643 neuroblastoma xenograft; assay: PPTP in vivo xenograft testing, NB-1643; parameters: species or system mice
[6] = tested on: CHLA-79 neuroblastoma xenograft; assay: PPTP in vivo xenograft testing, CHLA-79; parameters: species or system mice
[7] = 1 mg/kg IP Q4Dx3 repeated at Day 21
[8] = NB-1643, 1 mg/kg IP Q4Dx3 repeated at Day 21

**Q.** With `C=C1C[C@@H]2CC[C@@]34C[C@H]5O[C@H]6[C@@H](O3)[C@H]3O[C@H](CC[C@@H]3O[C@H]6[C@H]5O4)CC(=O)C[C@@H]3[C@@H](OC)[C@@H](C[C@H](O)CN)O[C@H]3C[C@H]3O[C@@H](CC[C@@H]1O2)C[C@@H](C)C3=C` [Eribulin] as the compound, how does the EFS activity ([1]; 1.5 mg/kg IP) read?
**A.** Its EFS activity is “High (High activity requires: (a) an EFS T/C >2; (b) a significant difference in EFS distributions, and (c) a net reduction in median tumor volume for animals in the treated group at the end of treatment as compared to at treatment initiation)”.

**Q.** And the Response activity ([1]; 1.5 mg/kg IP)?
**A.** The Response activity was “High (A high level of activity is indicated by a score of 6 or more)”.

**Q.** And the “EFS T/C” value ([1]; 1.5 mg/kg IP Q4Dx3 repeated at Day 21)?
**A.** Its value is >4.7.

**Q.** And the “Median final RTV (CD45%)” value ([1]; CD45%, 1.5 mg/kg IP)?
**A.** The value was 0.0%.

**Q.** What about the EFS activity ([2]; 1 mg/kg IP) of the same compound?
**A.** Its EFS activity is “High (High activity requires: (a) an EFS T/C >2; (b) a significant difference in EFS distributions, and (c) a net reduction in median tumor volume for animals in the treated group at the end of treatment as compared to at treatment initiation)”.

**Q.** What about the Response activity ([2]; 1 mg/kg IP) of the same compound?
**A.** Its Response activity is “High (A high level of activity is indicated by a score of 6 or more)”.

**Q.** What about the T/C volume activity ([2]; 1 mg/kg IP) of the same compound?
**A.** Its T/C volume activity is “High (High activity = T/C ≤0.15)”.

**Q.** What about the “EFS T/C” value [2, 7] of the same compound?
**A.** Its value is >6.3.

**Q.** And the “Median final RTV (CD45%)” value [2, 7]?
**A.** The value was 0.0.

**Q.** What about the “Tumor volume T/C” value ([2]; 1 mg/kg IP, Day 21 or earlier) of the same compound?
**A.** Its value is 0.10.

**Q.** What about the Response activity (BT-29 rhabdoid xenograft; 1 mg/kg IP) of the same compound?
**A.** The Response activity was “Int (intermediate activity by a score of ≥2 but <6)”.

**Q.** What about the T/C volume activity (BT-29 rhabdoid xenograft; 1 mg/kg IP) of the same compound?
**A.** The T/C volume activity was “Low (Low activity = T/C >0.45)”.

**Q.** And the “EFS T/C” value (BT-29 rhabdoid xenograft; [7])?
**A.** The value was >1.6.

**Q.** And the “Median final RTV (CD45%)” value (BT-29 rhabdoid xenograft; [7])?
**A.** Its value is >4.

**Q.** And the “Tumor volume T/C” value (BT-29 rhabdoid xenograft; 1 mg/kg IP, Day 21 or earlier)?
**A.** Its value is 0.65.

**Q.** And the “toxicity rate in the treated groups” value ([3]; 6 of 409 treated mice, control 1 of 401)?
**A.** Its value is 1.5%.

**Q.** And the MTD at 6 weeks ([3]; NOD-SCID, mouse, in vivo, ip)?
**A.** The MTD at 6 weeks was 1.5 mg/kg.

**Q.** What about the “AUC (area under the plasma drug concentration-time curve)” value ([4]; 1 mg/kg dose, SCID mice) of the same compound?
**A.** Its value is 658 ng·h/mL.

**Q.** What about the “AUC per course of treatment” value ([4]; preclinical setting, three doses of 1 mg/kg per course) of the same compound?
**A.** The value was 1,974 ng hour/ml.

**Q.** What about the EFS activity ([5]; NB-1643, 1 mg/kg IP) of the same compound?
**A.** The EFS activity was “High (High activity requires: (a) an EFS T/C >2; (b) a significant difference in EFS distributions, and (c) a net reduction in median tumor volume for animals in the treated group at the end of treatment as compared to at treatment initiation)”.

**Q.** And the Response activity ([5]; NB-1643, 1 mg/kg IP)?
**A.** The Response activity was “High (A high level of activity is indicated by a score of 6 or more)”.

**Q.** And the T/C volume activity ([5]; NB-1643, 1 mg/kg IP)?
**A.** The T/C volume activity was “High (High activity = T/C ≤0.15)”.

**Q.** And the “EFS T/C” value [5, 8]?
**A.** The value was >4.7.

**Q.** What about the “Median final RTV (CD45%)” value [5, 8] of the same compound?
**A.** The value was 0.6.

**Q.** And the “Tumor volume T/C” value ([5]; NB-1643, 1 mg/kg IP, Day 21 or earlier)?
**A.** The value was 0.01.

**Q.** And the objective response ([5]; NB-1643 neuroblastoma xenograft)?
**A.** Its objective response is “achieved an objective response”.

**Q.** What about the EFS activity ([6]; 1 mg/kg IP) of the same compound?
**A.** The EFS activity was “Low (Low activity = EFS T/C <2)”.

**Q.** And the Response activity ([6]; 1 mg/kg IP)?
**A.** Its Response activity is “Int (intermediate activity by a score of ≥2 but <6)”.

**Q.** And the T/C volume activity ([6]; 1 mg/kg IP)?
**A.** Its T/C volume activity is “Low (Low activity = T/C >0.45)”.

**Q.** What about the “EFS T/C” value [6, 7] of the same compound?
**A.** The value was 1.9.

**Q.** What about the “Median final RTV (CD45%)” value [6, 7] of the same compound?
**A.** The value was >4.

**Q.** And the Time to event [6, 7]?
**A.** Its Time to event is 13.0.

**Q.** What about the “Tumor volume T/C” value ([6]; 1 mg/kg IP, Day 21 or earlier) of the same compound?
**A.** The value was 0.71.
